In paper PMC5727842, “Antioxidant and Antidiabetic Effects of Flavonoids: A Structure-Activity Relationship Based Study” (BioMed Research International, 2017):

How the values were obtained:
[1] = molecular target: T1, xanthine oxidase from buttermilk (Bos taurus, UniProt P80457); assay: Xanthine oxidase inhibitory assay (XOI); assay type: biochemical; conditions: for xanthine oxidase inhibitory effect (in words): discussion; for IC50: xanthine oxidase inhibition, 295 nm, mean ± SEM (n = 3), NA: not active
T1 construct: 0.3 U/mL enzymes (xanthine oxidase from buttermilk); purchased Sigma-Aldrich (Singapore); host or cells: buttermilk (natural source)
Procedure: XO catalyzes the oxidation of hypoxanthine to xanthine and subsequently to uric acid. The inhibition of XO reduces both vascular oxidative stress and circulating levels of uric acid. This assay is based on the fact that the superoxide anions are generated by the xanthine. The xanthine oxidase inhibitory activity was measured spectrophotometrically (Tecan NanoQuant Infinite M200, Switzerland) at 295 nm under aerobic condition with slight modification. The reaction mixture contained 50 mM phosphate buffer (pH 7.5), 0.15 mM xanthine (substrate), and 0.3 U/mL enzymes (xanthine oxidase from buttermilk). Samples were prepared by dissolving 1 mg in 5% DMSO in MeOH which gives sample concentration of 144.0 μg/mL in assay. […] The absorption increment at 295 nm indicates the formation of […] of uric acid/min at 25°C. […] All determination was done in triplicate and half maximal concentration (IC50) values were calculated from the percentage of inhibition. XO inhibition activity was expressed as the percentage inhibition of XO as follows:(3) % of inhibition=AbsA−B−C−D/AbsA−B×100, where A is the negative control with B as the blank of A which is without the enzyme and the sample while C is the activity of the sample with enzyme with D as the blank of the sample without enzyme.

[2] = Ferric reducing antioxidant power (FRAP); conditions: for FRAP (AAE μg): ascorbic acid equivalent, mean ± SEM (n = 3), Table 2
Procedure: This assay was based on the reduction of the ferric tripyridyltriazine (Fe III-TPTZ) complex to the ferrous ion (Fe II) at a low pH forming an intense blue color. In the FRAP assay, compounds that are rich in antioxidant effect exert their action by breaking the free radical chain by donating a hydrogen atom. Briefly, ferric reducing antioxidant power (FRAP) reagent (2.5 mL of a 10 mM TPTZ solution in 40 mM HCl, 2.5 mL of 20 mM FeCl3, and 25 mL of 0.1 M acetate buffer pH 3.6) was prepared and incubated for 10 min at 37°C. Then 20 μL of each compound and ascorbic acid (standard) and 40 μL of FRAP reagent were added to 140 μL of distilled water in a 96-well plate producing a blue-colored solution. The solutions were kept at room temperature for 20 min in the dark and then measured at 593 nm with a microplate reader (Tecan, Switzerland) using a reagent blank composed of 40 μL of FRAP reagents in 200 μL of distilled water. A calibration curve was prepared with a serial dilution of ascorbic acid (standard). The total antioxidant capacity was calculated by interpolating the measured absorbance of the calibration curve and expressed as ascorbic acid equivalents. The results were corrected for dilution and expressed as AAE μg of ascorbic acid/g.

T1 sequence (P80457 whole entry): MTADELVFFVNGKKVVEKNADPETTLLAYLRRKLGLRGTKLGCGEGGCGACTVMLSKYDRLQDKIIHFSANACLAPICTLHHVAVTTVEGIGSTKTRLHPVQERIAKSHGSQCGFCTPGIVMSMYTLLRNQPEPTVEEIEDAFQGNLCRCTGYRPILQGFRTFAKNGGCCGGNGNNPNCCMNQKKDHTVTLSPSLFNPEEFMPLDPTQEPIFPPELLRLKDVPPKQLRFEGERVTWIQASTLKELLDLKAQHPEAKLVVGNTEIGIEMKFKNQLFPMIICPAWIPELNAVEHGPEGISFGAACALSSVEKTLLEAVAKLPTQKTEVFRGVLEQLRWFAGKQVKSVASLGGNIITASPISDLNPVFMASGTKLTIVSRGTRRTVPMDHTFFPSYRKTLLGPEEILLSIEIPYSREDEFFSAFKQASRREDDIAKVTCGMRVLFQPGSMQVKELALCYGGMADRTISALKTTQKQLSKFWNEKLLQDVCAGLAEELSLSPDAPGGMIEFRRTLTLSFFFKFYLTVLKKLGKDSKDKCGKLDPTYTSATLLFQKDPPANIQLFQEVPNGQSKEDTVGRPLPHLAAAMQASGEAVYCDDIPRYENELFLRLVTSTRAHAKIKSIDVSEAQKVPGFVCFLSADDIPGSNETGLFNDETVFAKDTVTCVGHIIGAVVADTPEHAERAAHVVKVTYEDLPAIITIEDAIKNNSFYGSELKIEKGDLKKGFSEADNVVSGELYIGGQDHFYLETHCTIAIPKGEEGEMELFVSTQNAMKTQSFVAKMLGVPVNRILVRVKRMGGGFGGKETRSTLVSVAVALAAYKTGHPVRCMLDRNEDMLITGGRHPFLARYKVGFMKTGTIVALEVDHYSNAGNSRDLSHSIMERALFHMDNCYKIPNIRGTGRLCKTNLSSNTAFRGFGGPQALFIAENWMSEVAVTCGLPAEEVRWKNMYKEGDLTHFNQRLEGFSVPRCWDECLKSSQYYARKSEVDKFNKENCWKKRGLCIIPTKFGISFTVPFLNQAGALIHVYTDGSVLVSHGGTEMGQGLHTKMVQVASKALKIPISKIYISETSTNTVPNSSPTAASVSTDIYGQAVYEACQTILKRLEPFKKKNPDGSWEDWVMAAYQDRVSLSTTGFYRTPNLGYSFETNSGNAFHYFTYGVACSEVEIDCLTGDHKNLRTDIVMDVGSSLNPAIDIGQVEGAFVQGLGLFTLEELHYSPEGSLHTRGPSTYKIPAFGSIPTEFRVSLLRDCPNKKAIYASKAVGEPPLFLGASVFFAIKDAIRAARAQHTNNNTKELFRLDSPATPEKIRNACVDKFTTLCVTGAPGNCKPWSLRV

| SMILES | xanthine oxidase inhibitory effect (in words) [1] | IC50 [1] [µM] | FRAP (AAE μg) [2] | FRAP antioxidant capacity [2] |
| --- | --- | --- | --- | --- |
| O=c1cc(-c2ccc(O)c(O)c2)oc2c(O)c(O)cc(O)c12 [Hypolaetin, 3′,4′,5,7,8-Pentahydroxyflavone] | low xanthine oxidase inhibitory activity | > 331 | 177.37 ± 1.82^B AAE μg | – |
| COc1cc(O)c2c(=O)cc(-c3ccccc3)oc2c1 [Techtochrysin, 5-Hydroxy-7-methoxyflavone] | low xanthine oxidase inhibitory activity | > 373 | 11.49 ± 0.32^F AAE μg | 11.49 ± 0.32 AAE μg of ascorbic acid/g |
